Measured values taken from patent US12319664B2, “Herbicidally active 3-phenylisoxazoline-5-carboxamides of cyclopentenylcarboxylic acid derivatives” (Bayer Aktiengesellschaft, priority 2018, dated 2025).

Experiments:
POLCO = assay: Post-emergence herbicidal action against POLCO; assay type: in vivo, Polygonum convolvulus; conditions: application rate 80 g/ha, rated visually about 3 weeks after treatment
How it was run: (§1)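 Percent herbicidal activity was judged visually relative to untreated controls approximately 3 weeks after spraying. Treatment occurred at the one-leaf stage on greenhouse-grown plants in sandy loam.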

HORMU = assay: Post-emergence herbicidal action against HORMU; assay type: in vivo, Hordeum murinum; conditions: application rate 80 g/ha
How it was run: as §1

ALOMY = assay: Post-emergence herbicidal action against ALOMY; assay type: in vivo, Alopecurus myosuroides; conditions: application rate 80 g/ha, rated visually after about 3 weeks
How it was run: as §1

SETVI = assay: Post-emergence herbicidal action against SETVI; assay type: in vivo, Setaria viridis; conditions: application rate 80 g/ha, rated visually after about 3 weeks
How it was run: as §1

VIOTR = assay: Post-emergence herbicidal action against VIOTR; assay type: in vivo, Viola tricolor; conditions: application rate 80 g/ha, rated visually about 3 weeks after treatment
Protocol: [table] 2. Post-emergence herbicidal action against harmful plants and crop plant compatibility Seeds of monocotyledonous and dicotyledonous weeds and crop plants are placed in sandy loam in plastic or wood-fibre pots, covered with soil and cultivated in a greenhouse under controlled growth conditions. 2 to 3 weeks after sowing, the test plants are treated at the one-leaf stage. The compounds of the invention, formulated in the form of wettable powders (WP) or as emulsion concentrates (EC), are then sprayed onto the green parts of the plants as aqueous suspension or emulsion with addition of 0.5% additive at a water application rate of 600 l/ha (converted). After the test plants have been kept in the greenhouse under optimum growth conditions for about 3 weeks, the activity of the preparations is rated visually in comparison to untreated controls. For example, 100% activity=the plants have died, 0% activity=like control plants.

AMARE = assay: Post-emergence herbicidal action against AMARE; assay type: in vivo, Amaranthus retroflexus; conditions: application rate 80 g/ha, rated visually about 3 weeks after treatment
How it was run: as §1

PHBPU = assay: Post-emergence herbicidal action against PHBPU; assay type: in vivo, Pharbitis purpurea; conditions: application rate 80 g/ha, rated visually about 3 weeks after treatment
How it was run: as §1

STEME = assay: Post-emergence herbicidal action against STEME; assay type: in vivo, Stellaria media; conditions: application rate 80 g/ha, rated visually about 3 weeks after treatment
How it was run: as §1

LOLRI = assay: Post-emergence herbicidal action against LOLRI; assay type: in vivo, Lolium rigidum; conditions: application rate 80 g/ha, rated visually after about 3 weeks
How it was run: as §1

ABUTH = assay: Post-emergence herbicidal action against ABUTH; assay type: in vivo, Abutilon theophrasti; conditions: application rate 80 g/ha, rated visually about 3 weeks after treatment
How it was run: as §1

ECHCG = assay: Post-emergence herbicidal action against ECHCG; assay type: in vivo, Echinochloa crus-galli; conditions: application rate 80 g/ha, rated visually after about 3 weeks
How it was run: as §1

VERPE = assay: Post-emergence herbicidal action against VERPE; assay type: in vivo, Veronica persica; conditions: application rate 80 g/ha
How it was run: as §1

AVEFA = assay: Post-emergence herbicidal action against AVEFA; assay type: in vivo, Avena fatua; conditions: application rate 80 g/ha, rated visually after about 3 weeks
How it was run: as §1

Compound	Herbicidal action against [%] POLCO (POLCO)	Herbicidal action against [%] HORMU (HORMU)	Herbicidal action against [%] ALOMY (ALOMY)	Herbicidal action against [%] SETVI (SETVI)	Herbicidal action against [%] VIOTR (VIOTR)	Herbicidal action against [%] AMARE (AMARE)	Herbicidal action against [%] PHBPU (PHBPU)	Herbicidal action against [%] STEME (STEME)	Herbicidal action against [%] LOLRI (LOLRI)	Herbicidal action against [%] ABUTH (ABUTH)	Herbicidal action against [%] ECHCG (ECHCG)	Herbicidal action against [%] VERPE (VERPE)	Herbicidal action against [%] AVEFA (AVEFA)
CC1(C(=O)NC2C=CC(C(=O)O)C2)CC(c2cc(F)cc(C#N)c2)=NO1 (mixture of isomers) [Example I-075]	90%	100%	100%	80%	90%	90%	90%	90%	100%	80%	90%	90%	
CC1(C(=O)NC2C=CC(C(=O)OCCCl)C2)CC(c2cc(F)cc(C#N)c2)=NO1 (mixture of isomers) [Example I-083]	90%	100%	100%	80%	90%	90%	90%	90%	100%	90%	90%	90%	100%
COCCOC(=O)C1C=CC(NC(=O)C2(C)CC(c3cc(F)cc(C#N)c3)=NO2)C1 (mixture of isomers) [Example I-082]	90%	100%	100%	90%	90%	90%	90%	90%	100%	90%	90%	90%	100%
COCCOC(=O)C1C=CC(NC(=O)C2(C(F)(F)F)CC(c3cc(F)cc(C#N)c3)=NO2)C1 (centres unmarked) [Example I-100]	90%	90%	100%	80%	80%	80%	80%	90%	90%	80%	90%	90%	100%
CCOC(=O)C1=CC[C@H](NC(=O)C2(C)CC(c3cc(F)cc(F)c3)=NO2)C1 (some centres unmarked) [III-07]	80%	80%	90%	90%	90%	90%	80%	90%	90%	80%	90%	90%	90%
C=CC1(C(=O)N[C@H]2CC=C(C(=O)OC)C2)CC(c2cc(F)cc(F)c2)=NO1 (some centres unmarked) [III-08]	80%	100%	90%	90%	80%	80%	80%	90%	90%	80%	90%	90%	100%
CC1(C(=O)N[C@H]2CC=C(C(=O)OCc3ccccc3)C2)CC(c2cc(F)cc(F)c2)=NO1 (some centres unmarked) [III-12]	90%	100%	100%	80%	90%	90%	90%	80%	100%	90%		90%	100%
C=CC1(C(=O)N[C@H]2CC=C(C(=O)OCCOCC)C2)CC(c2cc(F)cc(F)c2)=NO1 (some centres unmarked) [III-16]	90%	90%		80%	90%	90%	90%	80%	100%	80%	90%	80%	100%
CC(C)C(C#N)NC(=O)C1C=CC(NC(=O)C2(C(F)(F)F)CC(c3cc(F)cc(F)c3)=NO2)C1 (mixture of isomers) [II-35]	90%	80%	90%	80%	90%	90%	90%	90%	90%	80%		90%	100%
N#Cc1cccc(C2=NOC(C(=O)NC3C=CC(C(=O)OCCCl)C3)(C(F)(F)F)C2)c1 (mixture of isomers) [Example I-088]	90%	90%		90%	90%	90%	90%	90%	100%	90%	90%	90%	100%
